# Measured values from patent US5028614A, “Hydroxymethyl-indolizidines and quinolizidines and their use as α-glucosidase I inhibitors” (Merrell Dow Pharmaceuticals Inc., priority 1990, dated 1991).
# Structures can show the parent of a compound that is named as a salt.
# Molecular target: α-glucosidase I
# Assay: Microtiter plate assay for α-glucosidase I activity
# Format: biochemical
# Settings: [3H]G3M9N substrate, purified α-glucosidase I, pH 6.8, 37° C., one hour
# Method: The [^3 H] glucose labeled oligosaccharides substrate (G3 M9 N) for glucosidase I was prepared by metabolically labeling exponentially growing BHK cells with [^3 H]galactose in the presence of 200μg/ml of castanospermine. BHK cells grown as monolayer were treated with 200μg/ml of castanospermine in DMEM (#430-1600) supplemented with 10% heat inactivated fetal calf serum, 2 mM L-glutamine and 1X of PSN antibiotic mixture. After three hour incubation with castanospermine, [1-^3 H] galactose (10μci/ml of media) was added to label the glycoproteins and cells were allowed to grow to confluency for an additional 48 hours. At the end of labeling period, the cells were washed with cold PBS and scraped with a rubber policeman. Cell pellet was heated for 10 minutes at 100° C. and exhaustively treated with pronase (usually 72 hrs) in 50 mM Tris pH 7.5 containing 10 mM CaCl2 and 1% Pronase under toluene atmosphere to obtain glycopeptides. The glycopeptides were separated on columns of Bio-gel P-4. The glycopeptides peak produced by castanospermine treatment was pooled, treated with Endo-H to release the oligosaccharides. The oligosaccharides obtained by endo-H hydrolysis were bound to a ConA column previously washed with buffer A (50 mM Tris pH 7.5 containing 500 mM NaCl) and equilibrated with buffer B (5 mM Sodium acetate buffer pH 5.5 containing 2 mM of each CaCl2, MgCl2 and MnCl2). The oligosaccharides were then eluted with buffer B containing 100 mM α-methylmannoside. The oligosaccharides eluted from ConA column were further purified and characterized on a calibrated Biogel P-4 column (1.5×200 cm, (-) 400 mesh). The purified oligosaccharides having GLc3 Man9 GlcNAc structure were used as substrate in these studies. […]
# ConA-sepharose was washed first with buffer A, then with buffer B as described above, and resuspended in buffer B (gel: buffer, 1:1) before use. […] A 150 μl aliquot of supernatant was removed and counted.
row,Structure (SMILES),IC50 [nM]
1,OC[C@@H]1[C@@H](O)[C@H](O)[C@@H](O)[C@H]2CCCN21 [Compound VII],300
2,"O=C(O[C@H]1CCCN2[C@H]1[C@H](O)[C@@H](O)[C@H](O)[C@H]2CO)c1ccccc1 [XVII, [1S-(1α,2β,3α,4β,9α,9aβ) ]-octahydro-4-(hydroxymethyl)-2H-quinolizine-1,2,3,9-tetrol 9-benzoate]",29000
3,"OC[C@@H]1[C@@H](O)[C@H](O)[C@@H](O)[C@H]2[C@@H](O)CCCN21 [Compound XXI, [1S-(1α,2β,3α,4β,9α,9aβ)]-octahydro-4-(hydroxy-methyl) -2H-quinolizine-1,2,3,9-tetrol hydrochloride]",150
